Measurements reported in publication PMC11904993, “Humanized Candida and NanoBiT Assays Expedite Discovery of Bdf1 Bromodomain Inhibitors With Antifungal Potential” (Advanced Science, 2025).
Several values for one entry are separate records, joined by “and”; a condition that tells them apart may be missing. Equal entries are not always repeated. Where two headings read alike, the source gives them in different places.

What was measured:
Bdf1/Swc4 = target: T1, Bdf1/Swc4 (Saccharomyces cerevisiae, UniProt P35817); experiment: NanoBiT assay, control pair; type: cell-based, S. cerevisiae; design: remaining activity: dose or concentration left out as unconfirmed
T1 construct: expressed in transfected cells; host or cells: S. cerevisiae
T1 sequence (P35817 whole entry): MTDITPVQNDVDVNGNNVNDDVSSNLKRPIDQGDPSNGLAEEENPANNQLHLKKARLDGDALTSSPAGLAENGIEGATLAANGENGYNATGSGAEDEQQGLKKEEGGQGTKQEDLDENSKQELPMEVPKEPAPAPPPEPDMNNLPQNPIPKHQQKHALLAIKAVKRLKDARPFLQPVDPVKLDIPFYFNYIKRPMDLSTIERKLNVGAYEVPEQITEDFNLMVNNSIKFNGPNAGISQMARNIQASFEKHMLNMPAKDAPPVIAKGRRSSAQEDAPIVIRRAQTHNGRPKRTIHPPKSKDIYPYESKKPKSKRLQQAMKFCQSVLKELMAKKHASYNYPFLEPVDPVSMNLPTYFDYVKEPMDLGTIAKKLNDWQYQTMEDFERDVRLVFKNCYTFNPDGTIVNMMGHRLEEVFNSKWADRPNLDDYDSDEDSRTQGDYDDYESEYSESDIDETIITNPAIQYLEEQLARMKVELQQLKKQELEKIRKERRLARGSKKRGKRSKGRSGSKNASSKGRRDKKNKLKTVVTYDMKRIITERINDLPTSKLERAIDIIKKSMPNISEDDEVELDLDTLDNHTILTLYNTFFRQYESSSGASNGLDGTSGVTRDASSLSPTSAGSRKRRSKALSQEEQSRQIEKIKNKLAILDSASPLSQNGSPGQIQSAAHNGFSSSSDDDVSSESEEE
T1 sequence (P53201 whole entry, further chain): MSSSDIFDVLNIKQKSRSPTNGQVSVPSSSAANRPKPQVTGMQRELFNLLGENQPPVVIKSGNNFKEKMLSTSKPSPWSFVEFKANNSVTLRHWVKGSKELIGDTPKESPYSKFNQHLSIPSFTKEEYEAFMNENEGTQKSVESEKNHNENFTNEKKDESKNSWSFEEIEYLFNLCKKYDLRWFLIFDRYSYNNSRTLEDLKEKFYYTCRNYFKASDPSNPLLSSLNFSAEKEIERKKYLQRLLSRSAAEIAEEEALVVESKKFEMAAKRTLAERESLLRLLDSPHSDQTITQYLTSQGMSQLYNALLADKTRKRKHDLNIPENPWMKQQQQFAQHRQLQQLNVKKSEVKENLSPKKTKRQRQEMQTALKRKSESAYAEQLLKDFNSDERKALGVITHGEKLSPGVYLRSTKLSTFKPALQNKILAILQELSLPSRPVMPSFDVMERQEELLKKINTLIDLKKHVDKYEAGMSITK
Experimental: Yeast strains were distributed in 96‐well microplates containing SC(MSG)‐U medium (SC‐U medium with 0.1% monosodium glutamate instead of ammonium sulfate as a nitrogen source) and grown at 30 °C. 40 µL of exponentially growing cells were transferred in white 96‐well half‐area microplates (ProxiPlate Plus, Greiner Bio‐One) previously filled with 40 µL per well of SC(MSG) containing 100 µM furimazine. The microplates were then incubated for 10 min in the dark before the luminescence signals were recorded using a microplate reader (Ensight, PerkinElmer). Luminescence measurements were performed for 1 s per well at a distance of 0.1 mm between the plate and the detector. The luminescence values were normalized with the optical density (OD600) of the corresponding cultures. For NanoBiT assays with BET inhibitors, yeast cultures were grown overnight at 30 °C in SC(MSG) medium in the presence of serial dilutions of 24c and I‐BET726. Overnight cultures were diluted 5 fold in SC(MSG) and incubated for 1 h before luminescence was recorded as previously indicated. Luminescence values for each condition were normalized using the average of the luminescence recorded for the Bdf1/Swc4 and Bmh1/Bmh2 controls.

CgBdf1 BD1 = CgBdf1 BD1 (Candida glabrata, UniProt Q6FWV7); experiment: HTRF assay, inhibition of H4ac4 peptide binding; design: species or system C. glabrata; details: for %HTRF Signal Cg Bdf1 BD1: 240 min
Sequence of CgBdf1 BD1 (Q6FWV7 entry or part of it): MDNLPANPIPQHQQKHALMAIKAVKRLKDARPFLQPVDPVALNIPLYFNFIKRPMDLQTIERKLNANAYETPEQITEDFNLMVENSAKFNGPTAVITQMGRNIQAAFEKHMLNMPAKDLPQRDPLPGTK

human Brd4 BD2 = target: T2, human Brd4 BD2 (Homo sapiens, UniProt O60885); experiment: HTRF assay, inhibition of H4ac4 peptide binding; details: for %HTRF Signal hBrd4 BD2: Fig 2E
T2 construct: GST‐tagged BD2 (residues 349–460) from human Brd4 (UniProt ID O60885); purchased Reaction Biology Corp

`Cc1ccc(-c2nnc(C)c(NCc3ccc(C)o3)n2)cc1` [Compound 24c, 6‐methyl‐N‐((5‐methylfuran‐2‐yl)methyl)‐3‐(p‐tolyl)‐1,2,4‐triazin‐5‐amine] gave a remaining activity at 195.3 µM (Bdf1/Swc4; Bdf1-SmBiT, Swc4-LgBiT, 0.1953 mM, Fig 4C, read-out: Normalized nanoBiT signal) of 93%, a remaining activity at 390.6 µM (Bdf1/Swc4; Bdf1-SmBiT, Swc4-LgBiT, 0.3906 mM, Fig 4C, read-out: Normalized nanoBiT signal) of 104% and a remaining activity at 781.3 µM (Bdf1/Swc4; Bdf1-SmBiT, Swc4-LgBiT, 0.7813 mM, Fig 4C, read-out: Normalized nanoBiT signal) of 108%. The remaining activity at 1562.5 µM (Bdf1/Swc4; Bdf1-SmBiT, Swc4-LgBiT, 1.5625 mM, Fig 4C, read-out: Normalized nanoBiT signal) was 100%, the remaining activity at 3125 µM (Bdf1/Swc4; Bdf1-SmBiT, Swc4-LgBiT, 3.1250 mM, Fig 4C, read-out: Normalized nanoBiT signal) was 101% and the remaining activity (Bdf1/Swc4; Bdf1-SmBiT, Swc4-LgBiT, […], Fig 4C, read-out: Normalized nanoBiT signal) was 96%. The “inhibition of NanoBiT signal, Bdf1/Swc4” value (Bdf1/Swc4; control pair independent of Bdf1 BDs) was “not observed”, the activity at 0.002 µM (CgBdf1 BD1; 4 h, Fig 2E, 0.002 microM, read-out: %HTRF Signal Cg Bdf1 BD1) was 102% and the activity at 0.005 µM (CgBdf1 BD1; 4 h, Fig 2E, 0.005 microM, read-out: %HTRF Signal Cg Bdf1 BD1) was 97.9%. The activity at 0.013 µM (CgBdf1 BD1; 4 h, Fig 2E, 0.013 microM, read-out: %HTRF Signal Cg Bdf1 BD1) was 101%, the activity at 0.033 µM (CgBdf1 BD1; 4 h, Fig 2E, 0.033 microM, read-out: %HTRF Signal Cg Bdf1 BD1) was 96.4% and the activity at 0.082 µM (CgBdf1 BD1; 4 h, Fig 2E, 0.082 microM, read-out: %HTRF Signal Cg Bdf1 BD1) was 98%. For the same compound, the activity at 0.205 µM (CgBdf1 BD1; 4 h, Fig 2E, 0.205 microM, read-out: %HTRF Signal Cg Bdf1 BD1) was 97.5%, the activity at 0.512 µM (CgBdf1 BD1; 4 h, Fig 2E, 0.512 microM, read-out: %HTRF Signal Cg Bdf1 BD1) was 94.4% and the activity at 1.28 µM (CgBdf1 BD1; 4 h, Fig 2E, 1.280 microM, read-out: %HTRF Signal Cg Bdf1 BD1) was 88.7%. For the same compound, the activity at 3.2 µM (CgBdf1 BD1; 4 h, Fig 2E, 3.200 microM, read-out: %HTRF Signal Cg Bdf1 BD1) was 75%, the activity at 8 µM (CgBdf1 BD1; 4 h, Fig 2E, 8.000 microM, read-out: %HTRF Signal Cg Bdf1 BD1) was 48.9% and the activity at 20 µM (CgBdf1 BD1; 4 h, Fig 2E, 20.000 microM, read-out: %HTRF Signal Cg Bdf1 BD1) was 25.2%. The IC50 (CgBdf1 BD1; Fig 2C original data, analogs of 24, single experiments Exp1-3, read-out: pIC50 CgBD1 (converted)) was 8.28 µM and 7.31 µM and 9.27 µM, the “%HTRF Signal Cg Bdf1 BD1” value (CgBdf1 BD1; Fig 2E, 0.002 microM) was 102.33% and 103.65% and the “%HTRF Signal Cg Bdf1 BD1” value (CgBdf1 BD1; Fig 2E, 0.005 microM) was 104.91% and 102.28%. The “%HTRF Signal Cg Bdf1 BD1” value (CgBdf1 BD1; Fig 2E, 0.013 microM) was 100.44% and 101.24%, the “%HTRF Signal Cg Bdf1 BD1” value (CgBdf1 BD1; Fig 2E, 0.033 microM) was 102.26% and 102.17% and the “%HTRF Signal Cg Bdf1 BD1” value (CgBdf1 BD1; Fig 2E, 0.082 microM) was 100.01% and 99.64%. The “%HTRF Signal Cg Bdf1 BD1” value (CgBdf1 BD1; Fig 2E, 0.205 microM) was 100.01% and 98.57%, the “%HTRF Signal Cg Bdf1 BD1” value (CgBdf1 BD1; Fig 2E, 0.512 microM) was 94.98% and 94.31% and the “%HTRF Signal Cg Bdf1 BD1” value (CgBdf1 BD1; Fig 2E, 1.280 microM, 1.28 µM) was 89.76% and 89.41%. The “%HTRF Signal Cg Bdf1 BD1” value (CgBdf1 BD1; Fig 2E, 3.200 microM, 3.2 µM) was 77.27% and 82.10%, the “%HTRF Signal Cg Bdf1 BD1” value (CgBdf1 BD1; Fig 2E, 8.000 microM) was 45.31% and 53.86% and the “%HTRF Signal Cg Bdf1 BD1” value (CgBdf1 BD1; Fig 2E, 20.000 microM) was 17.43% and 18.98%. The IC50 (CgBdf1 BD1; Fig 2E, mean and s.d., three independent experiments, read-out: IC50 (μM) CgBD1) was 8.28 µM and 8 µM, the “fold drop in CgBD1 inhibition” value (CgBdf1 BD1; relative to 24, thiophenyl replaced by furyl or methylfuryl) was 4 fold and the IC50 (human Brd4 BD2) was > 20 µM. For the same compound, the “%HTRF Signal hBrd4 BD2” value (human Brd4 BD2; 0.002 microM) was 101.87% and 97.60% and 95.93%, the “%HTRF Signal hBrd4 BD2” value (human Brd4 BD2; 0.005 microM) was 107.00% and 95.29% and 98.83% and the “%HTRF Signal hBrd4 BD2” value (human Brd4 BD2; 0.013 microM) was 110.74% and 98.44% and 97.06%. The “%HTRF Signal hBrd4 BD2” value (human Brd4 BD2; 0.033 microM) was 106.00% and 100.34% and 100.19%, the “%HTRF Signal hBrd4 BD2” value (human Brd4 BD2; 0.082 microM) was 114.59% and 102.11% and 105.40% and the “%HTRF Signal hBrd4 BD2” value (human Brd4 BD2; 0.205 microM) was 102.46% and 102.49% and 103.89%. The “%HTRF Signal hBrd4 BD2” value (human Brd4 BD2; 0.512 microM) was 110.69% and 102.99% and 100.42%, the “%HTRF Signal hBrd4 BD2” value (human Brd4 BD2; 1.280 microM) was 110.63% and 103.66% and 98.46% and the “%HTRF Signal hBrd4 BD2” value (human Brd4 BD2; 3.200 microM) was 107.03% and 99.12% and 95.88%. The “%HTRF Signal hBrd4 BD2” value (human Brd4 BD2; 8.000 microM) was 99.23% and 96.86% and 85.81% and the “%HTRF Signal hBrd4 BD2” value (human Brd4 BD2; 20.000 microM) was 80.43% and 88.19% and 83.66%.
